This is an account of results in BindingDB's records for doi:10.1021/acsmedchemlett.5b00147 (Therachem Research Medilab (India), 2015).

A short description of this assay: Antagonist activity against PAR2 in human HT29 cells assessed as inhibition of UTP-induced Ca2+ responses pre-incubated for 30 mins before UTP stimulation by FLIPR assay.

For the compound `CCOC(=O)[C@H]1CCCN(C(=O)c2cn3nc(-c4ccc(F)cc4)cc(C(F)(F)F)c3n2)[C@@H]1C`, the IC50 – broadly, the concentration at which inhibition is half-maximal – turned out to be 4.4 µM.
